Test results published in the NIST ThermoML archive (doi:10.1021/je101012n).
Numbers after ± are expanded uncertainties.

Assay: mn = molality of the nth substance listed, in mol/kg
Conditions: 101 kPa, Liquid, Alternating current cell with electrodes

[Cl-].[Li+] [lithium chloride] + O
electrical conductivity [S/m]
Conditions | 278.15 K | 283.15 K | 298.15 K | 308.15 K | 318.15 K | 343.15 K | 363.15 K
m1 = 8.5e-05 | 0.0005986 ± 2.4e-06 | 0.0006826 ± 2.7e-06 | 0.0009588 ± 3.8e-06 | 0.00117 ± 5e-06 | 0.001388 ± 6e-06 | 0.001978 ± 8e-06 | 0.002483 ± 1e-05
m1 = 0.000952 | 0.006496 ± 2.6e-05 | 0.007487 ± 3e-05 | 0.01069 ± 4e-05 | 0.01311 ± 5e-05 | 0.01528 ± 6e-05 | 0.02191 ± 9e-05 | 0.02774 ± 0.00011
m1 = 0.00845 | 0.05562 ± 0.00022 | 0.06414 ± 0.00026 | 0.09167 ± 0.00037 | 0.1123 ± 0.0005 | 0.1315 ± 0.0005 | 0.1886 ± 0.0008 | 0.2366 ± 0.0009
m1 = 0.09523 | 0.5516 ± 0.0022 | 0.6326 ± 0.0025 | 0.9019 ± 0.0036 | 1.099 ± 0.0044 | 1.276 ± 0.0051 | 1.809 ± 0.0072 | 2.257 ± 0.009
m1 = 0.9613 | 4.317 ± 0.017 | 4.986 ± 0.02 | 7.13 ± 0.029 | 8.35 ± 0.033 | 9.794 ± 0.039 | 12.64 ± 0.051 | 15.57 ± 0.062

O=C([O-])O.[K+] [potassium bicarbonate] + O
electrical conductivity [S/m]
Conditions | 278.15 K | 283.15 K | 298.15 K | 308.15 K | 318.15 K | 343.15 K | 363.15 K
m1 = 0.001 | 0.007403 ± 3e-05 | 0.00834 ± 3e-05 | 0.01179 ± 5e-05 | 0.01416 ± 5.7e-05 | 0.01673 ± 7e-05 | 0.02401 ± 0.0001 | 0.03038 ± 0.00012
m1 = 0.00992 | 0.0687 ± 0.0003 | 0.07877 ± 0.00032 | 0.1107 ± 0.0004 | 0.1335 ± 0.0005 | 0.1573 ± 0.0006 | 0.2237 ± 0.0009 | 0.2794 ± 0.0011
m1 = 0.09998 | 0.6141 ± 0.0025 | 0.7003 ± 0.0028 | 0.9852 ± 0.0039 | 1.176 ± 0.0047 | 1.383 ± 0.0055 | 1.963 ± 0.0079 | 2.446 ± 0.0098
m1 = 0.5001 | 2.664 ± 0.011 | 3.031 ± 0.012 | 4.206 ± 0.017 | 5.066 ± 0.02 | 5.94 ± 0.024 | 8.391 ± 0.034 | 10.49 ± 0.042
m1 = 0.9999 | 4.748 ± 0.019 | 5.358 ± 0.021 | 7.365 ± 0.029 | 8.802 ± 0.035 | 10.31 ± 0.041 | 14.3 ± 0.057 | 17.93 ± 0.072

[Cl-].[Cl-].[Sr+2] [strontium chloride] + O
electrical conductivity [S/m]
Conditions | 278.15 K | 283.15 K | 298.15 K | 308.15 K | 318.15 K | 343.15 K | 363.15 K
m1 = 0.000125 | 0.002084 ± 8e-06 | 0.002384 ± 1e-05 | 0.003331 ± 1.3e-05 | 0.003972 ± 1.6e-05 | 0.004689 ± 1.9e-05 | 0.00678 ± 3e-05 | 0.00842 ± 3e-05
m1 = 0.00141 | 0.02222 ± 9e-05 | 0.02538 ± 0.0001 | 0.03603 ± 0.00014 | 0.04353 ± 0.00017 | 0.05151 ± 0.00021 | 0.07369 ± 0.00029 | 0.09235 ± 0.00037
m1 = 0.012 | 0.1807 ± 0.0007 | 0.2072 ± 0.0008 | 0.2926 ± 0.0012 | 0.3531 ± 0.0014 | 0.4164 ± 0.0017 | 0.5927 ± 0.0024 | 0.7383 ± 0.003
m1 = 0.1313 | 1.663 ± 0.0067 | 1.892 ± 0.0076 | 2.646 ± 0.011 | 3.174 ± 0.013 | 3.719 ± 0.015 | 5.229 ± 0.021 | 6.184 ± 0.025
m1 = 0.3891 | 4.194 ± 0.017 | 4.751 ± 0.019 | 6.457 ± 0.026 | 7.797 ± 0.031 | 9.074 ± 0.036 | 12.51 ± 0.05 | 15.38 ± 0.061

O=S(=O)([O-])[O-].[Ca+2] [calcium sulfate] + O
electrical conductivity [S/m]
Conditions | 278.15 K | 283.15 K | 298.15 K | 308.15 K | 318.15 K | 343.15 K | 363.15 K
m1 = 7.6e-05 | 0.00123 ± 1e-05 | 0.001409 ± 6e-06 | 0.001963 ± 8e-06 | 0.002529 ± 1e-05 | 0.003011 ± 1.2e-05 | 0.004223 ± 1.7e-05 | 0.00536 ± 2e-05
m1 = 0.00102 | 0.01397 ± 6e-05 | 0.01601 ± 6e-05 | 0.02275 ± 9e-05 | 0.02808 ± 0.00011 | 0.0325 ± 0.0001 | 0.04537 ± 0.00018 | 0.05546 ± 0.00022
m1 = 0.01245 | 0.1154 ± 0.0005 | 0.1331 ± 0.0005 | 0.185 ± 0.0007 | 0.2255 ± 0.0009 | 0.2573 ± 0.001 | 0.3419 ± 0.0014 | 0.3973 ± 0.0016

O=[N+]([O-])[O-].O=[N+]([O-])[O-].[Mg+2] [magnesium nitrate] + O
electrical conductivity [S/m]
Conditions | 278.1 K | 283.1 K | 298.15 K | 308.15 K | 318.15 K | 343.15 K | 363.15 K
m1 = 9.8e-05 | 0.007334 ± 2.9e-05 | 0.008166 ± 3.3e-05 | 0.01072 ± 4e-05 | 0.01244 ± 5e-05 | 0.01407 ± 6e-05 | 0.01831 ± 7e-05 | 0.02164 ± 9e-05
m1 = 0.000976 | 0.01971 ± 8e-05 | 0.02238 ± 9e-05 | 0.03083 ± 0.00012 | 0.03667 ± 0.00015 | 0.04272 ± 0.00017 | 0.0591 ± 0.0002 | 0.07277 ± 0.00029
m1 = 0.00937 | 0.1291 ± 0.0005 | 0.1472 ± 0.0006 | 0.2073 ± 0.0008 | 0.2488 ± 0.001 | 0.2927 ± 0.0012 | 0.4146 ± 0.0017 | 0.5165 ± 0.0021
m1 = 0.09844 | 1.079 ± 0.0043 | 1.228 ± 0.0049 | 1.724 ± 0.0069 | 2.078 ± 0.0083 | 2.442 ± 0.0098 | 3.471 ± 0.014 | 4.261 ± 0.017
m1 = 0.3271 | 3.129 ± 0.013 | 3.538 ± 0.014 | 4.926 ± 0.02 | 5.922 ± 0.024 | 6.968 ± 0.028 | 9.861 ± 0.039 | 11.62 ± 0.046

O=S(=O)([O-])[O-].O=S(=O)([O-])[O-].O=S(=O)([O-])[O-].[Fe+3].[Fe+3] [ferric sulfate] + O
electrical conductivity [S/m]
Conditions | 343.15 K | 363.15 K
m1 = 0.000104 | 0.659 ± 0.0026 | 0.6888 ± 0.0028
m1 = 0.000829 | 0.681 ± 0.0027 | 0.718 ± 0.0029

O=S(=O)([O-])[O-].[Na+].[Na+] [sodium sulfate] + O
electrical conductivity [S/m]
Conditions | 278.15 K | 283.15 K | 298.15 K | 308.15 K | 318.15 K | 343.15 K | 363.15 K
m1 = 0.0001 | 0.001565 ± 6e-06 | 0.001807 ± 7e-06 | 0.002576 ± 1e-05 | 0.003181 ± 1.3e-05 | 0.003786 ± 1.5e-05 | 0.005401 ± 2.2e-05 | 0.00676 ± 3e-05
m1 = 0.001 | 0.01463 ± 6e-05 | 0.0168 ± 0.0001 | 0.02415 ± 0.0001 | 0.0292 ± 0.0001 | 0.03475 ± 0.00014 | 0.05015 ± 0.0002 | 0.0633 ± 0.00025
m1 = 0.01 | 0.1296 ± 0.0005 | 0.1488 ± 0.0006 | 0.2128 ± 0.0009 | 0.2575 ± 0.001 | 0.3049 ± 0.0012 | 0.4381 ± 0.0018 | 0.5474 ± 0.0022
m1 = 0.1001 | 1 ± 0.004 | 1.148 ± 0.0046 | 1.639 ± 0.0066 | 1.986 ± 0.0079 | 2.347 ± 0.0094 | 3.347 ± 0.013 | 4.17 ± 0.017
m1 = 0.1989 | 1.756 ± 0.007 | 2.022 ± 0.0081 | 2.882 ± 0.011 | 3.508 ± 0.014 | 4.153 ± 0.017 | 5.946 ± 0.024 | 7.43 ± 0.03
m1 = 0.4999 | 3.383 ± 0.013 | 3.854 ± 0.015 | 5.47 ± 0.022 | 6.708 ± 0.027 | 7.954 ± 0.032 | 11.39 ± 0.046 | 13.7 ± 0.055

O=[N+]([O-])[O-].O=[N+]([O-])[O-].O=[N+]([O-])[O-].[Al+3] [aluminum trinitrate] + O
electrical conductivity [S/m]
Conditions | 278.1 K | 283.1 K | 298.15 K | 308.15 K | 318.15 K | 343.15 K | 363.15 K
m1 = 8.8e-05 | – | – | – | – | – | 0.09049 ± 0.00036 | 0.1042 ± 0.0004
m1 = 0.000883 | 0.05671 ± 0.00023 | 0.06384 ± 0.00026 | 0.08484 ± 0.00034 | 0.09898 ± 0.0004 | 0.1135 ± 0.0005 | 0.1533 ± 0.0006 | 0.1872 ± 0.0008
m1 = 0.00871 | 0.2168 ± 0.0009 | 0.2457 ± 0.001 | 0.3424 ± 0.0014 | 0.411 ± 0.0016 | 0.4827 ± 0.0019 | 0.6932 ± 0.0028 | 0.8941 ± 0.0036
m1 = 0.0881 | 1.551 ± 0.0062 | 1.706 ± 0.0068 | 2.378 ± 0.0095 | 2.873 ± 0.011 | 3.387 ± 0.013 | 4.867 ± 0.019 | 5.923 ± 0.024
m1 = 0.158 | 2.511 ± 0.01 | 2.826 ± 0.011 | 3.913 ± 0.016 | 4.788 ± 0.019 | 5.595 ± 0.022 | 7.689 ± 0.031 | 9.698 ± 0.039

O=C([O-])[O-].[Na+].[Na+] [sodium carbonate] + O
electrical conductivity [S/m]
Conditions | 278.15 K | 283.15 K | 298.15 K | 308.15 K | 318.15 K | 343.15 K | 363.15 K
m1 = 0.000912 | 0.01348 ± 5e-05 | 0.01603 ± 6e-05 | 0.02439 ± 0.0001 | 0.02888 ± 0.00012 | 0.03495 ± 0.00014 | 0.05196 ± 0.00021 | 0.06513 ± 0.00026
m1 = 0.01031 | 0.1285 ± 0.0005 | 0.1491 ± 0.0006 | 0.2182 ± 0.0009 | 0.2684 ± 0.0011 | 0.3237 ± 0.0013 | 0.4867 ± 0.0019 | 0.6187 ± 0.0025
m1 = 0.09334 | 0.886 ± 0.0035 | 1.024 ± 0.0041 | 1.486 ± 0.0059 | 1.822 ± 0.0073 | 2.182 ± 0.0087 | 3.222 ± 0.013 | 4.117 ± 0.017
m1 = 0.3041 | 2.324 ± 0.0093 | 2.685 ± 0.011 | 3.893 ± 0.016 | 4.781 ± 0.019 | 5.713 ± 0.023 | 8.362 ± 0.033 | 10.64 ± 0.043
